Test system: SF3B1 K700E mutant cell derived from the HEK293FT cells
Assay: GCV-concentration-dependent cell death, MTT assay, lentiviral HSV-TK (BRD9 intron) in genome-edited cells
Assay type: cell-based
Settings: SF3B1 K700E mutant cell (one allele) vs SF3B1 normal cell; GCV 100 to 0.16 μg/mL, 48 hours; FIG. 7
Procedure: In this example, in order to verify the toxicity of a suicide gene in a cell having an SF3B1 K700E mutation in one allele in a genome, as in actual cancer cells, HEK293FT cells were genome-edited and an SF3B1 K700E mutant cell strain was established.
Meanwhile, an HSV-TK expression lentiviral vector containing the BRD9 intron was prepared using the pHR vector shown in SEQ ID NO: 11 (FIGS. 3A and 3B). The lentiviral vector was introduced into the SF3B1 K700E mutant strain and an SF3B1 normal strain as a control, and the number of cells killed by the addition of GCV was quantified using the MTT assay method. A detailed procedure will be shown below. […]
The solubilized solution of the MTT cell number measuring kit (Nacalai Tesque Inc.) was added into the HEK293FT cells at 100 μL/well, and the mixture was incubated at 37° C. After 20 hours, the absorbance at 570 nm (reference wavelength: 655 nm) was measured with the microplate reader.
The number of viable cells was calculated based on a standard curve using the above-mentioned serially diluted HEK293FT cells, and the viability was shown as a ratio when the number of cells in the GCV-free group was 100%. Further, the efficacy was evaluated by comparing the cytotoxicity due to GCV addition in the SF3B1 normal cell with the cytotoxicity of the SF3B1 K700E mutant cell. […]

suicide gene containing the BRD9 intron: SFFV promoter, HSV-TK inserted with an intron of BRD9 containing no normal acceptor sequence, puromycin resistance gene linked by P2A
viability (ratio when the number of cells in the GCV-free group was 100%): viability lower than that of the SF3B1 normal cell

From US12521450B2, “DNA, expression vector, transcript, cell, pharmaceutical composition, and medicine” (Hitachi, Ltd., priority 2021, dated 2026)
